Reference: article PMC3970110 (Bioorganic & medicinal chemistry letters, 2013)

Biological target: T1, human NAD+-dependent 15-hydroxyprostaglandin dehydrogenase (HPGD, 15-PGDH) (Homo sapiens, UniProt P15428)
T1 sequence (P15428 1-266): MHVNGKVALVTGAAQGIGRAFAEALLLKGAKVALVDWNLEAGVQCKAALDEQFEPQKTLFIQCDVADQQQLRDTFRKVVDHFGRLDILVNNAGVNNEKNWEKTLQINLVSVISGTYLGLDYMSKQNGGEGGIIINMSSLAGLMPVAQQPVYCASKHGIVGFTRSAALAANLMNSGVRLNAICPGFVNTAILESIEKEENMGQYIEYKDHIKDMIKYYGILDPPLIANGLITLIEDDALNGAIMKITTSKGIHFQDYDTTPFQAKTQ
Experiment: HPGD HTS enzymatic assay
Format: biochemical

decrease in HPGD activity relative to ML148: 20 fold
SMILES: Cc1cccc(-n2cnc3cc(C(=O)N4CCCC4)ccc32)c1 [Compound 11i]
